Tests used:
human CSNK1D = human CSNK1D (Homo sapiens (Human), UniProt P48730); test: CSNK1D assay (ADP-Glo, 1 μM ATP); format: biochemical; settings: median, Table 2, read-out: CSNK1D IC50 [mol/l] (median)
Method: CSNK1D-inhibitory activity of compounds of the present invention in presence of 1 μM adenosine-tri-phosphate (ATP) was quantified employing the CSNK1D assay as described in the following paragraphs. In essence, the enzyme activity is measured by quantification of the adenosine-di-phosphate (ADP), which is generated as a co-product of the enzyme reaction, via the “ADP-Glo™ Kinase Assay” kit from the company Promega. This detection system works as follows: In a first step the ATP not consumed in the kinase reaction is quantitatively converted to cAMP employing an adenylate cyclase (“ADP-Glo-reagent”), then the adenylate cyclase is stopped and the ADP generated in the kinase reaction converted to ATP which generates in a luciferase-based reaction a glow-luminescence signal (“Kinase Detection Reagent”).
(§1) Recombinant fusion protein of N-terminal Glutathion-S-Transferase (GST) and full-length human CSNK1D, expressed by baculovirus infected insect cells and purified via Glutathion affinity chromatography, was purchased from Life Technologies (product no. PV3665) and used as enzyme. As substrate for the kinase reaction the biotinylated peptide Btn-Ahx-SGSEGDSESGEEEG (C-terminus in amide form) was used which can be purchased e.g. from the company Biosyntan (Berlin-Buch, Germany).
For the assay 50 nl of a 100 fold concentrated solution of the test compound in DMSO was pipetted into a white 1536-well microtiter plate (Greiner Bio-One, Frickenhausen, Germany), 2 μL of a solution of CSNK1D in aqueous assay buffer [50 mM HEPES pH 7.5, 10% (v/v) glycerol, 10 mM MgCl2, 50 mM NaCl, 1 mM dithiothreitol, 0.01% (w/v) bovine serum albumin, 0.01% (v/v) Triton X-100] were added and the mixture was incubated for 15 min at 22° C. to allow pre-binding of the test compounds to the enzyme before the start of the kinase reaction. Then the kinase reaction was started by the addition of 3 μL of a solution of ATP (1.67 μM=>final conc. in the 5 μL assay volume is 1 μM) and peptide substrate (50 μM=>final conc. in the 5 μL assay volume is 30 μM) in assay buffer and the resulting mixture was incubated for a reaction time of 30 min at 22° C. The concentration of CSNK1D was adjusted depending of the activity of the enzyme lot and was chosen appropriate to have the assay in the linear range, a typical concentration is about 0.5 ng/μL. The reaction was stopped by the addition of 2.5 μL of “ADP-Glo-reagent” (1:1.5 fold diluted with water) and the resulting mixture was incubated at 22° C. for 1 h to convert the ATP not consumed in the kinase reaction completely […]. Subsequently 2.5 μL of the “kinase detection reagent” (1.2 fold more concentrated than recommended by the producer) were added, the resulting mixture was incubated at 22° C. for 1 h and then the luminescence measured with a suitable measurement instrument (e.g. Viewlux™ from Perkin-Elmer). The amount of emitted light was taken as a measure for the amount of ADP generated and thereby for the activity of the CSNK1D.
(§2) The data were normalised (enzyme reaction without inhibitor=0% inhibition, all other assay components but no enzyme=100% inhibition).

human CSNK1A1 = human CSNK1A1 (Homo sapiens (Human), UniProt P48729); test: CSNK1A1 Assay 2 (ADP-Glo, 1 μM ATP); format: biochemical; settings: median, Table 2, read-out: CSNK1A1 Assay 2 IC50 [mol/l] (median)
Chain of human CSNK1A1 (P48729 whole entry): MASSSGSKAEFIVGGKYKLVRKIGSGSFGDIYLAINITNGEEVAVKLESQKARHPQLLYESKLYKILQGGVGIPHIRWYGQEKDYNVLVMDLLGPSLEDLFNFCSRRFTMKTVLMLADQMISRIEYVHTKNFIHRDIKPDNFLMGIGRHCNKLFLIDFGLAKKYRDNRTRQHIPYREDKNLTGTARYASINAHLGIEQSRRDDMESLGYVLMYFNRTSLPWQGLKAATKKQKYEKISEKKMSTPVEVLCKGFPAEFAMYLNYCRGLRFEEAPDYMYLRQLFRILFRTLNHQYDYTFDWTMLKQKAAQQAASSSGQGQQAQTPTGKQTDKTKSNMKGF
Method: CSNK1A1-inhibitory activity of compounds of the present invention in presence of 1 μM adenosine-tri-phosphate (ATP) was quantified employing the CSNK1A1 assay as described in the following paragraphs. In essence, the enzyme activity is measured by quantification of the adenosine-di-phosphate (ADP), which is generated as a co-product of the enzyme reaction, via the “ADP-Glo™ Kinase Assay” kit from the company Promega. This detection system works as follows: In a first step the ATP not consumed in the kinase reaction is quantitatively converted to cAMP employing an adenylate cyclase (“ADP-Glo-reagent”), then the adenylate cyclase is stopped and the ADP generated in the kinase reaction converted to ATP which generates in a luciferase-based reaction a glow-luminescence signal (“Kinase Detection Reagent”).
as §1, with “CSNK1A1,” for “CSNK1D,”, “PV4174)” for “PV3665)”, “biotin-Ahx-KRRRAL-pS-VASLPGL” for “Btn-Ahx-SGSEGDSESGEEEG”
For the assay 50 nl of a 100 fold concentrated solution of the test compound in DMSO was pipetted into a white 1536-well microtiter plate (Greiner Bio-One, Frickenhausen, Germany), 2 μL of a solution of CSNK1A1 in aqueous assay buffer [50 mM HEPES pH 7.5, 10% (v/v) glycerol, 10 mM MgCl2, 50 mM NaCl, 1 mM dithiothreitol, 0.01% (w/v) bovine serum albumin, 0.01% (v/v) Triton X-100] were added and the mixture was incubated for 15 min at 22° C. to allow pre-binding of the test compounds to the enzyme before the start of the kinase reaction. Then the kinase reaction was started by the addition of 3 μL of a solution of ATP (1.67 μM=>final conc. in the 5 μL assay volume is 1 μM) and peptide substrate (50 μM=>final conc. in the 5 μL assay volume is 30 μM) in assay buffer and the resulting mixture was incubated for a reaction time of 30 min at 22° C. The concentration of CSNK1A1 was adjusted depending of the activity of the enzyme lot and was chosen appropriate to have the assay in the linear range, a typical concentrations are about 0.0375 ng/μL. The reaction was stopped by the addition of 2.5 μL of “ADP-Glo-reagent” (1:1.5 fold diluted with water) and the resulting mixture was incubated at 22° C. for 1 h to convert the ATP not consumed in the kinase reaction completely […]. Subsequently 2.5 μL of the “kinase detection reagent” (1.2 fold more concentrated than recommended by the producer) were added, the resulting mixture was incubated at 22° C. for 1 h and then the luminescence measured with a suitable measurement instrument (e.g. Viewlux™ from Perkin-Elmer). The amount of emitted light was taken as a measure for the amount of ADP generated and thereby for the activity of the CSNK1A1.
as §2

Chain of human CSNK1D (P48730 whole entry): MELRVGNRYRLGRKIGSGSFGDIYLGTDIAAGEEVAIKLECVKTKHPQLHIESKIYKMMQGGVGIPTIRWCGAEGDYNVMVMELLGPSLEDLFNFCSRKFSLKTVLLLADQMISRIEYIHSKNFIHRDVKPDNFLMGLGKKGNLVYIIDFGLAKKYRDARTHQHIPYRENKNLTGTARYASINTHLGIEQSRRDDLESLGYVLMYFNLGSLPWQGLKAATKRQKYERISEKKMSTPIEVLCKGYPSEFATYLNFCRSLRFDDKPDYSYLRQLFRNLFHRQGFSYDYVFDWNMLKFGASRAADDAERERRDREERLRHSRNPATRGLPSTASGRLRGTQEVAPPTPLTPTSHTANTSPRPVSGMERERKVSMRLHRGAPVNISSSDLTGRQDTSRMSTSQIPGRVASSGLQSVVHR

SMILES	IC50 (human CSNK1D) [nM]	IC50 (human CSNK1A1) [nM]
CN1CC(CC(F)(F)F)c2[nH]c(-c3ccnc(NC(=O)C(CC(F)F)c4ccc(F)cc4)c3)c(Nc3cscn3)c2C1=O (racemic) [Example 52, (2RS)-4,4-difluoro-2-(4-fluorophenyl)-N-{4-[(7RS)-5-methyl-4-oxo-3-[(1,3-thiazol-4-yl)amino]-7-(2,2,2-trifluoroethyl)-4,5,6,7-tetrahydro-1H-pyrrolo[3,2-c]pyridin-2-yl]pyridin-2-yl}butanamide]	12	7.9
CCC1CNC(=O)c2c1[nH]c(-c1ccnc(NC(=O)Cc3ccc(F)cc3)c1)c2Nc1ccccc1 (single isomer, unassigned) [Example 2, N-{4-[3-anilino-7-ethyl-4-oxo-4,5,6,7-tetrahydro-1H-pyrrolo[3,2-c]pyridin-2-yl]pyridin-2-yl}-2-(4-fluorophenyl)acetamide]	5.2	3.3
CCC1CNC(=O)c2c1[nH]c(-c1ccnc(NC(=O)Cc3ccc(F)cc3)c1)c2Nc1ccccc1 (single isomer, unassigned) [Example 3, N-{4-[3-anilino-7-ethyl-4-oxo-4,5,6,7-tetrahydro-1H-pyrrolo[3,2-c]pyridin-2-yl]pyridin-2-yl}-2-(4-fluorophenyl)acetamide]	10	3.8
Cc1cn(C)c(=O)c2c(Nc3ccccc3)c(-c3ccnc(NC(=O)C(CC(F)F)c4ccc(F)cc4)c3)[nH]c12 (single isomer, unassigned) [Example 12, N-[4-(3-anilino-5,7-dimethyl-4-oxo-4,5-dihydro-1H-pyrrolo[3,2-c]pyridin-2-yl)pyridin-2-yl]-4,4-difluoro-2-(4-fluorophenyl)butanamide]	160	180
Cc1cn(C)c(=O)c2c(Nc3ccccc3)c(-c3ccnc(NC(=O)C(CC(F)F)c4ccc(F)cc4)c3)[nH]c12 (single isomer, unassigned) [Example 13, N-[4-(3-anilino-5,7-dimethyl-4-oxo-4,5-dihydro-1H-pyrrolo[3,2-c]pyridin-2-yl)pyridin-2-yl]-4,4-difluoro-2-(4-fluorophenyl)butanamide]	22	19
CN1CC(CC(F)(F)F)c2[nH]c(-c3ccnc(NC(=O)Cc4ccc(F)cc4)c3)c(Nc3ccccc3)c2C1=O (single isomer, unassigned) [Example 15, N-{4-[3-anilino-5-methyl-4-oxo-7-(2,2,2-trifluoroethyl)-4,5,6,7-tetrahydro-1H-pyrrolo[3,2-c]pyridin-2-yl]pyridin-2-yl}-2-(4-fluorophenyl)acetamide]	20	9.4
CN1CC(CC(F)(F)F)c2[nH]c(-c3ccnc(NC(=O)Cc4ccc(F)cc4)c3)c(Nc3ccccc3)c2C1=O (single isomer, unassigned) [Example 16, N-{4-[3-anilino-5-methyl-4-oxo-7-(2,2,2-trifluoroethyl)-4,5,6,7-tetrahydro-1H-pyrrolo[3,2-c]pyridin-2-yl]pyridin-2-yl}-2-(4-fluorophenyl)acetamide]	7.1	4.3
CN1CC(CC2CC2)c2[nH]c(-c3ccnc(NC(=O)Cc4ccc(F)cc4)c3)c(Nc3ccccc3)c2C1=O (single isomer, unassigned) [Example 19, N-{4-[3-anilino-7-(cyclopropylmethyl)-5-methyl-4-oxo-4,5,6,7-tetrahydro-1H-pyrrolo[3,2-c]pyridin-2-yl]pyridin-2-yl}-2-(4-fluorophenyl)acetamide]	6.5	3.9
CN1CC(CC2CC2)c2[nH]c(-c3ccnc(NC(=O)Cc4ccc(F)cc4)c3)c(Nc3ccccc3)c2C1=O (single isomer, unassigned) [Example 20, N-{4-[3-anilino-7-(cyclopropylmethyl)-5-methyl-4-oxo-4,5,6,7-tetrahydro-1H-pyrrolo[3,2-c]pyridin-2-yl]pyridin-2-yl}-2-(4-fluorophenyl)acetamide]	29	17
C[C@H](C(=O)Nc1cc(-c2[nH]c3ccn(C)c(=O)c3c2Nc2ccccc2)ccn1)c1ccc(F)cc1 (single isomer, unassigned) [Example 26]	22	5.9
C[C@@H](C(=O)Nc1cc(-c2[nH]c3ccn(C)c(=O)c3c2Nc2ccccc2)ccn1)c1ccc(F)cc1 (single isomer, unassigned) [Example 27]	28	21
Cn1ccc2[nH]c(-c3ccnc(NC(=O)C(CC(F)F)c4ccc(F)cc4)c3)c(Nc3ccccc3)c2c1=O (single isomer, unassigned) [Example 29, N-[4-(3-anilino-5-methyl-4-oxo-4,5-dihydro-1H-pyrrolo[3,2-c]pyridin-2-yl)pyridin-2-yl]-4,4-difluoro-2-(4-fluorophenyl)butanamide]	53	50
Cn1ccc2[nH]c(-c3ccnc(NC(=O)C(CC(F)F)c4ccc(F)cc4)c3)c(Nc3ccccc3)c2c1=O (single isomer, unassigned) [Example 30, N-[4-(3-anilino-5-methyl-4-oxo-4,5-dihydro-1H-pyrrolo[3,2-c]pyridin-2-yl)pyridin-2-yl]-4,4-difluoro-2-(4-fluorophenyl)butanamide]	7.1	3.7
Cn1cc(CC(F)(F)F)c2[nH]c(-c3ccnc(NC(=O)C(CC(F)F)c4ccc(F)cc4)c3)c(Nc3ccccc3)c2c1=O (single isomer, unassigned) [Example 36, N-{4-[3-anilino-5-methyl-4-oxo-7-(2,2,2-trifluoroethyl)-4,5-dihydro-1H-pyrrolo[3,2-c]pyridin-2-yl]pyridin-2-yl}-4,4-difluoro-2-(4-fluorophenyl)butanamide]	7.6	6.2
Cn1cc(CC(F)(F)F)c2[nH]c(-c3ccnc(NC(=O)C(CC(F)F)c4ccc(F)cc4)c3)c(Nc3ccccc3)c2c1=O (single isomer, unassigned) [Example 37, N-{4-[3-anilino-5-methyl-4-oxo-7-(2,2,2-trifluoroethyl)-4,5-dihydro-1H-pyrrolo[3,2-c]pyridin-2-yl]pyridin-2-yl}-4,4-difluoro-2-(4-fluorophenyl)butanamide]	15	12
